The results in this text go back to patent US10758534B2 (Vertex Pharmaceuticals Incorporated, priority 2014, dated 2020).

The target of the first assay is T1, F508del (Homo sapiens, UniProt P13569, DEL508-508).
T1 construct: expressed in transfected cells
T1 sequence (P13569 with tags, fused parts or gaps DEL508-508): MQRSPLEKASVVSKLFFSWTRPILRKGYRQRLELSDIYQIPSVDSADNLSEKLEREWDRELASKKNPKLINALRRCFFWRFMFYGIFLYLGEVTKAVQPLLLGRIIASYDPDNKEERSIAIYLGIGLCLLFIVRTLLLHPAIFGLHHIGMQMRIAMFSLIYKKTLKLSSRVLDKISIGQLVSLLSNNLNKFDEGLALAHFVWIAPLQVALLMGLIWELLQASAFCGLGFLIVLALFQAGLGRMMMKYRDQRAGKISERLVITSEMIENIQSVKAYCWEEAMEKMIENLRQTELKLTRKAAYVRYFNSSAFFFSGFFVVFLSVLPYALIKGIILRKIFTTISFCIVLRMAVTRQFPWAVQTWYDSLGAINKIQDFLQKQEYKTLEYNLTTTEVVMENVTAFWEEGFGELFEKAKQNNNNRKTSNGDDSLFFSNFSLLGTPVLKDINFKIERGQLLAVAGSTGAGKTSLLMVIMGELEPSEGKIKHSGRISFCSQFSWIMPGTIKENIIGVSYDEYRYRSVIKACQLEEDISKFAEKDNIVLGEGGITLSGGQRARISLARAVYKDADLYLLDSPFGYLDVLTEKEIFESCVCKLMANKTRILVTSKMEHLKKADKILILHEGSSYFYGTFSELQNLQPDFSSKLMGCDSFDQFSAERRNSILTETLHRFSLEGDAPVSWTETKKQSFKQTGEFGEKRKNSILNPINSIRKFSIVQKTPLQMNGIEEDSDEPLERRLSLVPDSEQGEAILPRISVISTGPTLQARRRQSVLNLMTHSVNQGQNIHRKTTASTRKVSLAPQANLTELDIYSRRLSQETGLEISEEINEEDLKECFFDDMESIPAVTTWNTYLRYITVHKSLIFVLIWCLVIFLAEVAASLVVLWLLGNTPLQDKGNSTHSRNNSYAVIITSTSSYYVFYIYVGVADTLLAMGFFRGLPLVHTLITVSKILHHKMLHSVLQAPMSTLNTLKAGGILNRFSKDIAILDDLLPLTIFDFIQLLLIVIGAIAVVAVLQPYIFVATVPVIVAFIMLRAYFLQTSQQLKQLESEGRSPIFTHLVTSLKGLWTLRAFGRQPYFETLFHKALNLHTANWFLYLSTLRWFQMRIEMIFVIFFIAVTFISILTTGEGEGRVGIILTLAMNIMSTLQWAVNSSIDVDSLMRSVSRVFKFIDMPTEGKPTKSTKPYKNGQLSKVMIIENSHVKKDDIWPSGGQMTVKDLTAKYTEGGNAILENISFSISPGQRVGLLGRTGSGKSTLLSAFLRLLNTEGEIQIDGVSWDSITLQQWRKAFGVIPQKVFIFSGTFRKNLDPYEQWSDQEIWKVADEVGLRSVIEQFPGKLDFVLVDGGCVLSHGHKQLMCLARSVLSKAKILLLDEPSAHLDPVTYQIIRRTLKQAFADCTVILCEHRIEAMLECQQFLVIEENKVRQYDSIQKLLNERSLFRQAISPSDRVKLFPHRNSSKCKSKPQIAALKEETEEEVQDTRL
The assay can be described thus: Protocol 2: FRET membrane potential optical assay (VIPR), identification of correction compounds. Type of assay: cell-based. Particulars: F508del CFTR modulator activity; compounds of Table 1; read-out: EC30. The gist of the method:
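NIH3T3 mouse fibroblasts stably expressing F508del-CFTR incubated with compound 16 h at 37 °C in serum-free medium, then loaded with CC2-DMPE/DiSBAC2(3) FRET dyes. Channel activated with 10 μM forskolin plus 20 μM genistein in Cl⁻-free (gluconate) bath; depolarisation from Cl⁻ efflux read on VIPR II.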
A word on the EC30: it is the point of the concentration-response curve where the effect stands at 30%. `CC1CN(c2ncccc2C(=O)NS(=O)(=O)c2cccc(Oc3cccc(N(C)C)c3)n2)C(C)(C)C1` (stereo not shown) [Compound 2443, N—[[6-[3-(dimethylamino)phenoxy]-2-pyridyl]sulfonyl]-2-(2,2,4-trimethylpyrrolidin-1-yl)pyridine-3-carboxamide]: the EC30 was less than 3000 nM.
On the same count and under the same terms, then `CC1CN(c2ncccc2C(=O)NS(=O)(=O)c2cccc(O[C@H]3CCN(Cc4ccccc4)C3)n2)C(C)(C)C1` (stereo partly drawn) [Compound 2078, N—[[6-[(3S)-1-benzylpyrrolidin-3-yl]oxy-2-pyridyl]sulfonyl]-2-(2,2,4-trimethylpyrrolidin-1-yl)pyridine-3-carboxamide], with 3000 to 10000 nM; and `CC1CN(c2ncccc2C(=O)NS(=O)(=O)c2cccc(NC3CCN(Cc4ccccc4)C3)n2)C(C)(C)C1` (stereo not shown) [Compound 2407, N—[[6-[(1-benzylpyrrolidin-3-yl)amino]-2-pyridyl]sulfonyl]-2-(2,2,4-trimethylpyrrolidin-1-yl)pyridine-3-carboxamide], with 3000 to 10000 nM.
For `C[C@@H]1CN(c2nc(-c3cc(C(F)(F)F)nn3C)ccc2C(=O)NS(=O)(=O)c2cccnc2N)C(C)(C)C1` [Compound 2416, N-[(2-amino-3-pyridyl)sulfonyl]-6-[2-methyl-5-(trifluoromethyl)pyrazol-3-yl]-2-[(4S)-2,2,4-trimethylpyrrolidin-1-yl]pyridine-3-carboxamide], the EC30 was less than 3000 nM.
The same measure, in the same setting: for `Cc1cc(C)cc(-c2ccc(C(=O)NS(=O)(=O)c3ccc[nH]c3=O)c(N3C[C@@H](C)CC3(C)C)n2)c1` [Compound 2626, 6-(3,5-dimethylphenyl)-N-[(2-oxo-1H-pyridin-3-yl)sulfonyl]-2-[(4S)-2,2,4-trimethylpyrrolidin-1-yl]pyridine-3-carboxamide] the value was less than 3000 nM; for `COC1CCN(c2cccc(S(=O)(=O)NC(=O)c3cccnc3N3CC(C)CC3(C)C)n2)CC1` (stereo not shown) [Compound 2732], 3000 to 10000 nM; for `COc1ccccc1CN(C)c1cccc(S(=O)(=O)NC(=O)c2cccnc2N2CC(C)CC2(C)C)n1` (stereo not shown) [Compound 2090, N—[[6-[(2-methoxyphenyl)methyl-methyl-amino]-2-pyridyl]sulfonyl]-2-(2,2,4-trimethylpyrrolidin-1-yl)pyridine-3-carboxamide], less than 3000 nM.
Still for that read-out and setting: for `C[C@@H]1CN(c2nc(-n3ccc(OCC4CC4)n3)ccc2C(=O)NS(=O)(=O)c2cccnc2N)C(C)(C)C1` [Compound 2691] the value was less than 3000 nM; for `CCOc1cc(C)cc(-c2ccc(C(=O)NS(=O)(=O)c3cccc(N)n3)c(Oc3c(C)cc(C)cc3C)n2)n1` [Compound 2511, N-[(6-amino-2-pyridyl)sulfonyl]-6-(6-ethoxy-4-methyl-2-pyridyl)-2-(2,4,6-trimethylphenoxy)pyridine-3-carboxamide], less than 3000 nM.
Still for that read-out and setting: then `CCN(CC)c1cccc(S(=O)(=O)NC(=O)c2cccnc2N2CC(C)CC2(C)C)n1` (stereo not shown) [Compound 2726], with less than 3000 nM; and `CC1CN(c2ncccc2C(=O)NS(=O)(=O)c2cccc(N3CCC(F)CC3)n2)C(C)(C)C1` (stereo not shown) [Compound 2453, N—[[6-(4-fluoro-1-piperidyl)-2-pyridyl]sulfonyl]-2-(2,2,4-trimethylpyrrolidin-1-yl)pyridine-3-carboxamide], with less than 3000 nM; and `COc1ccc(S(=O)(=O)NC(=O)c2ccc(-c3ccc(OC(C)C)nc3)nc2N2C[C@@H](C)CC2(C)C)c(N)n1` [Compound 2688], with less than 3000 nM.
As to `C[C@@H]1CN(c2nc(-c3ccc(Cl)cc3)ccc2C(=O)NS(=O)(=O)c2ccc[nH]c2=O)C(C)(C)C1` [Compound 2028, 6-(4-chlorophenyl)-N-[(2-oxo-1H-pyridin-3-yl)sulfonyl]-2-[(4S)-2,2,4-trimethylpyrrolidin-1-yl]pyridine-3-carboxamide], the EC30 is less than 3000 nM.
For the compound `C[C@@H]1CN(c2nc(-c3cnc(N(C)C)nc3)ccc2C(=O)NS(=O)(=O)c2cccnc2N)C(C)(C)C1` [Compound 2021, N-[(2-amino-3-pyridyl)sulfonyl]-6-[2-(dimethylamino)pyrimidin-5-yl]-2-[(4S)-2,2,4-trimethylpyrrolidin-1-yl]pyridine-3-carboxamide], the EC30 was 3000 to 10000 nM.
Same read-out and setting: then `C#CCCC(=O)Nc1cccc(S(=O)(=O)NC(=O)c2ccc(-c3ccc(Cl)c(OCCC)c3)nc2N2[C@H](C)CC[C@@H]2C)n1` [Compound 2540, 6-(4-chloro-3-propoxy-phenyl)-2-[(2R,5S)-2,5-dimethylpyrrolidin-1-yl]-N-[[6-(pent-4-ynoylamino)-2-pyridyl]sulfonyl]pyridine-3-carboxamide], with less than 3000 nM.

The assay is the same for the next values; noted with them: Table 3; compounds of Table 1 as modulators of CFTR activity; protocol not stated.
As to `Cc1cc(C)c(CN2c3ccccc3C[C@@H]2C(=O)NS(=O)(=O)c2cccc(N)n2)c(C)c1` [Compound 462, (2R)—N-[(6-amino-2-pyridyl)sulfonyl]-1-[(2,4,6-trimethylphenyl)methyl]indoline-2-carboxamide], the EC30 entry is “+++ (“+++” means <3 uM)”.
Same read-out and setting: for `CC(C)(C)c1ccc(C(=O)NS(=O)(=O)c2cccc(N)c2)c(-c2ccccc2)n1` [Compound 542, N-(3-aminophenyl)sulfonyl-6-tert-butyl-2-phenyl-pyridine-3-carboxamide] the value was “+++ (“+++” means <3 uM)”; for `Cc1ccc(Oc2nc(-c3cnn(CC(C)C)c3)ccc2C(=O)NS(=O)(=O)c2nccnc2N)c(C)c1` [Compound 713, N-(3-aminopyrazin-2-yl)sulfonyl-2-(2,4-dimethylphenoxy)-6-(1-isobutylpyrazol-4-yl)pyridine-3-carboxamide], “++ (“++” means between 3 uM and 10 uM)”.
The same measure, in the same setting: for `CC(C)COc1cc(F)cc(-c2ccc(C(=O)NS(=O)(=O)c3ccn[nH]3)c(N3CCCC(c4ccccn4)C3)n2)c1` (stereo not shown) [Compound 677, 6-(3-fluoro-5-isobutoxy-phenyl)-N-(1H-pyrazol-5-ylsulfonyl)-2-[3-(2-pyridyl)-1-piperidyl]pyridine-3-carboxamide] the value was “++ (“++” means between 3 uM and 10 uM)”; for `COCC1CCCCN1c1nc(-c2ccc(OC(C)C)nc2)ccc1C(=O)NS(=O)(=O)c1cccc(N)n1` (stereo not shown) [Compound 574, N-[(6-amino-2-pyridyl)sulfonyl]-6-(6-isopropoxy-3-pyridyl)-2-[2-(methoxymethyl)-1-piperidyl]pyridine-3-carboxamide], “++ (“++” means between 3 uM and 10 uM)”.
As for `CC(C)Oc1ccc(-c2ccc(C(=O)NS(=O)(=O)c3cccc(N)n3)c(N3CC[C@H](C)[C@H]3C)n2)cn1` [Compound 764, N-[(6-amino-2-pyridyl)sulfonyl]-2-[(2R,3S)-2,3-dimethylpyrrolidin-1-yl]-6-(6-isopropoxy-3-pyridyl)pyridine-3-carboxamide], the EC30 result is given as “+++ (“+++” means <3 uM)”.
Same read-out and setting: then `COc1cccc(-c2ccc(C(=O)NS(=O)(=O)c3cccc(N)n3)c(Oc3c(C)cc(C)cc3C)n2)c1` [Compound 413, N-[(6-amino-2-pyridyl)sulfonyl]-6-(3-methoxyphenyl)-2-(2,4,6-trimethylphenoxy)pyridine-3-carboxamide], with “+++ (“+++” means <3 uM)”; and `Cc1cc(C)c(Oc2nc(C(C)(C)C)ccc2C(=O)NS(=O)(=O)c2ccccc2C#N)c(C)c1` [Compound 78, 6-tert-butyl-N-(2-cyanophenyl)sulfonyl-2-(2,4,6-trimethylphenoxy)pyridine-3-carboxamide], with “+++ (“+++” means <3 uM)”.
The same measure, in the same setting: then `Cc1cc(C)c(Oc2nc(-c3cc(F)cc(OCC(C)C)c3)ccc2C(=O)NS(=O)(=O)c2ccc[nH]c2=O)c(C)c1` [Compound 169, 6-(3-fluoro-5-isobutoxy-phenyl)-N-[(2-oxo-1H-pyridin-3-yl)sulfonyl]-2-(2,4,6-trimethylphenoxy)pyridine-3-carboxamide], with “+++ (“+++” means <3 uM)”.
For `Cc1cc(C)c(Cn2nc(C(C)(C)C)cc2C(=O)NS(=O)(=O)c2cccc(N(C)C)c2)c(C)c1` [Compound 270, 5-tert-butyl-N-[3-(dimethylamino)phenyl]sulfonyl-2-[(2,4,6-trimethylphenyl)methyl]pyrazole-3-carboxamide], the EC30 entry is reported as “+++ (“+++” means <3 uM)”.
On the same count and under the same terms, for `Cc1cccc(C)c1Cn1nc(-c2cccc(Cl)c2)cc1C(=O)NS(=O)(=O)c1ccccc1` [Compound 83, N-(benzenesulfonyl)-5-(3-chlorophenyl)-2-[(2,6-dimethylphenyl)methyl]pyrazole-3-carboxamide] the value was “+++ (“+++” means <3 uM)”.
As for `CC(C)CNc1ccc(-c2ccc(C(=O)NS(=O)(=O)c3cccc(N)n3)c(N3CC(C)CC3(C)C)n2)cn1` (stereo not shown) [Compound 569, N-[(6-amino-2-pyridyl)sulfonyl]-6-[16-(isobutylamino)-3-pyridyl]-2-(2,2,4-trimethylpyrrolidin-1-yl)pyridine-3-carboxamide], the EC30 entry was “+++ (“+++” means <3 uM)”.
Take `CC(C)(C)c1ccc(C(=O)NS(=O)(=O)c2cccc(N)n2)c(C2CCCCC2)n1` [Compound 411, N-[(6-amino-2-pyridyl)sulfonyl]-6-tert-butyl-2-cyclohexyl-pyridine-3-carboxamide]: the EC30 result is recorded as “+++ (“+++” means <3 uM)”.
On the same count and under the same terms, then `Cc1cc(C)c(CN2Cc3ccccc3C2C(=O)NS(=O)(=O)c2ccccn2)c(C)c1` (stereo not shown) [Compound 48, N-(2-pyridylsulfonyl)-2-[(2,4,6-trimethylphenyl)methyl]isoindoline-1-carboxamide], with “++ (“++” means between 3 uM and 10 uM)”; and `CC(C)COc1cc(F)cc(-c2ccc(C(=O)NS(=O)(=O)c3ccn[nH]3)c(N3CCCCC3C)n2)c1` (stereo not shown) [Compound 442, 6-(3-fluoro-5-isobutoxy-phenyl)-2-(2-methyl-1-piperidyl)-N-(1H-pyrazol-5-ylsulfonyl)pyridine-3-carboxamide], with “+++ (“+++” means <3 uM)”; and `Cc1cccc(C)c1Cn1nc(C(C)(C)C)cc1C(=O)NS(=O)(=O)c1cccs1` [Compound 77, 5-tert-butyl-2-[(2,6-dimethylphenyl)methyl]-N-(2-thienylsulfonyl)pyrazole-3-carboxamide], with “+++ (“+++” means <3 uM)”.
